Test results reported in patent publication EP1203584A1 (priority 2000, dated 2002).

Tests used:
Assay type in all cases: in vivo, Male Wistar rats
[1] = test system: immunoreactivity of the neuronal acetylcholine in the neurones of the magnocellular nucleus basalis (MNB) and in the corpus striatum; assay: Immunoreactivity of neuronal acetylcholine in MNB and corpus striatum neurones
[2] = biological target: T1, acetylcholinesterase (AChE) (Rattus norvegicus, UniProt P37136); assay: Activity of acetylcholinesterase in treated rats; conditions: choline alfoscerate alone, 150 mg/kg
T1 construct: Male Wistar rats were divided into 5 groups; from tissue; host or cells: Male Wistar rats
T1 sequence (P37136 32-614): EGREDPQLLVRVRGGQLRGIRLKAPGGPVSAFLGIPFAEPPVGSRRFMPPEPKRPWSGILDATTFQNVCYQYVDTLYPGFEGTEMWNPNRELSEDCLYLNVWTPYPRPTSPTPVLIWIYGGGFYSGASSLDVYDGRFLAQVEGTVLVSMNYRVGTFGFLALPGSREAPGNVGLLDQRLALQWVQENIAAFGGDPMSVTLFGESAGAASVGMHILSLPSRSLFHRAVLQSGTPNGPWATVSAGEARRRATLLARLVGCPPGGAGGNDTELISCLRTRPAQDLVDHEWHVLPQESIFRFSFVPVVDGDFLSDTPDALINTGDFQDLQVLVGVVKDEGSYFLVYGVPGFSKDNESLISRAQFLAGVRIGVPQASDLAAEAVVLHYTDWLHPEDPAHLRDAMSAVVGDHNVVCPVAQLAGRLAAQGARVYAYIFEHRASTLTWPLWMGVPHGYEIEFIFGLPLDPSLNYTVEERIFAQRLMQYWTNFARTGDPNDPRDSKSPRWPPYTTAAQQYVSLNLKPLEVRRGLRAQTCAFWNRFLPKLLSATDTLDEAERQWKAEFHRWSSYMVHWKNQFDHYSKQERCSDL

[3] = test system: levels of acetylcholine in the cerebral cortex (frontal area), in the hippocampus and in the corpus striatum; assay: Levels of acetylcholine in rat brain areas after 1 week of treatment

C[N+](C)(C)CCOP(=O)([O-])OC[C@H](O)CO [choline alfoscerate]
immunoreactivity of the acetylcholine ([1]; choline alfoscerate alone, 150 mg/kg, MNB neurones and interneurones of the corpus striatum, more marked in the MNB): increased in a similar fashion | effect on the activity of the AChE [2]: did not show any effect | release of acetylcholine ([3]; 150 mg/kg choline alfoscerate, hippocampus and corpus striatum, reason for the choice of dose): significantly increases | increase in the levels of acetylcholine, compared with rivastigmine ([3]; choline alfoscerate alone versus rivastigmine 2.5 mg/kg, frontal cerebral cortex, hippocampus, corpus striatum): to the same extent as the dosage of the AchE inhibitor, rivastigmine | increased the levels of acetylcholine ([3]; choline alfoscerate alone, 150 mg/kg intraperitoneal, 1 week): approximately 20%

CCN(C)C(=O)Oc1cccc([C@H](C)N(C)C)c1 [rivastigmine]
immunoreactivity of the acetylcholine ([1]; rat, in vivo, 2.5 mg/kg): increased in a similar fashion
